Reference: patent publication US6972319B1, “Pituitary adenylate cyclase activating peptide (PACAP)receptor 3 (R3) agonists and their pharmacological methods of use” (priority 1999, dated 2005)
No end group written: not given here.

Target: T1, PACAP-R3 (Homo sapiens, UniProt P41587)
T1 sequence (P41587 24-438): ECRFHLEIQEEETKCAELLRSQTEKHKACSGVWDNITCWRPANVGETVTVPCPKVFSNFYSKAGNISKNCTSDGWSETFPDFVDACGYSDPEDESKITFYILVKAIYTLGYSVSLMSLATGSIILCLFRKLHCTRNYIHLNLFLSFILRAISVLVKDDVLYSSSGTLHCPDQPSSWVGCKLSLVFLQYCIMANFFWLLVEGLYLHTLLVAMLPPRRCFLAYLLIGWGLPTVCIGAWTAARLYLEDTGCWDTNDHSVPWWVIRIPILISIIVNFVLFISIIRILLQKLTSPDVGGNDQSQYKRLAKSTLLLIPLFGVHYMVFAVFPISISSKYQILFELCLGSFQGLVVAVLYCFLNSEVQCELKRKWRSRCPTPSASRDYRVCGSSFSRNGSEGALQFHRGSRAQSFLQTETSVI
Assay: Cyclic AMP SPA on CHO cells expressing PACAP R3
Type: cell-based
Parameters: expressed in transfected cells; host or cells: CHO cells (Geneticin selection)
Settings: for EC50: cAMP SPA, CHO cells transfected with PACAP-R3, concentration at which 50% of maximum PACAP27 activity is achieved, NA = no detectable activities, read-out: R3 EC50; for R3 Selectivity: ratio of EC50 at R2 versus EC50 at R3
Description: CHO cells expressing the PACAP R3 were plated in 96-well plates (Costar) at 8×10^4 cell/well and grown at 37 C. for 24 hours in α MEM+nucleosides+glutamine (Giobco BRL), 10% FBS, 100 μg/ml Pen/Strep, 0.3 mg/ml glutamine, 1 mM HEPES, 0.5 mg/ml Geneticin (Gibco BRL). The media was removed and the plates were washed with PBS. The cells were incubated with a peptide, in Hepes-PBS-BSA with 0.4 mg/mlSoybean Trypsin Inhibitor, 0.5 mg/ml Bacitracin, 100 uM IBMX, for 15 min at 37 C. Cyclic AMP in the cell extracts was quantitated using the cAMP SPA direct screening assay system (Amersham Pharmacia Biotech Inc, Piscataway, N.J.,). The peptides shown in Table 3 were assayed for cAMP activity.
EC50 is defined as the concentration of the polypeptide at which 50% of maximum PACAP27 activity is achieved. “NA” denotes no detectable activities. “R3 Selectivity” is derived from the ratio of EC50 at R2 versus EC50 at R3.

| EC50 [nM] | Compound | R3 Selectivity |
| --- | --- | --- |
| 0.16 | CC[C@H](C)[C@H](NC(=O)[C@@H](NC(=O)[C@H](CC(N)=O)NC(=O)[C@H](CC(C)C)NC(=O)[C@H](Cc1ccc(O)cc1)NC(=O)[C@H](CCCCN)NC(=O)[C@H](CCCCN)NC(=O)[C@H](C)NC(=O)[C@H](C)NC(=O)[C@H](CC(C)C)NC(=O)[C@H](CCC(N)=O)NC(=O)[C@H](CCCCN)NC(=O)[C@H](CCCNC(=N)N)NC(=O)[C@H](CC(C)C)NC(=O)[C@H](CCCNC(=N)N)NC(=O)[C@@H](NC(=O)[C@H](Cc1ccc(O)cc1)NC(=O)[C@H](CCC(N)=O)NC(=O)[C@H](CC(=O)O)NC(=O)[C@@H](NC(=O)[C@H](Cc1ccccc1)NC(=O)[C@@H](NC(=O)[C@H](C)NC(=O)[C@H](CC(=O)O)NC(=O)[C@H](CO)NC(=O)[C@@H](N)Cc1c[nH]cn1)C(C)C)[C@@H](C)O)[C@@H](C)O)[C@@H](C)O)C(=O)N[C@@H](CCCCN)C(=O)N[C@@H](CC(N)=O)C(=O)N[C@@H](CCCCN)C(=O)N[C@@H](CCCNC(=N)N)C(=O)N[C@@H](Cc1ccc(O)cc1)C(=O)O [Peptide R3P72] |  |
| 0.3 | CC[C@H](C)[C@H](NC(=O)[C@H](CO)NC(=O)[C@H](CC(N)=O)NC(=O)[C@H](CC(C)C)NC(=O)[C@H](Cc1ccc(O)cc1)NC(=O)[C@H](CCCCN)NC(=O)[C@H](CCCCN)NC(=O)[C@H](CC(C)C)NC(=O)[C@H](C)NC(=O)[C@H](CCSC)NC(=O)[C@H](CCC(N)=O)NC(=O)[C@H](CCCCN)NC(=O)[C@H](CCCNC(=N)N)NC(=O)[C@H](CC(C)C)NC(=O)[C@H](CCCNC(=N)N)NC(=O)[C@@H](NC(=O)[C@H](Cc1ccc(O)cc1)NC(=O)[C@H](CC(N)=O)NC(=O)[C@H](CC(=O)O)NC(=O)[C@@H](NC(=O)[C@H](Cc1ccccc1)NC(=O)[C@@H](NC(=O)[C@H](C)NC(=O)[C@H](CC(=O)O)NC(=O)[C@H](CO)NC(=O)[C@@H](N)Cc1c[nH]cn1)C(C)C)[C@@H](C)O)[C@@H](C)O)C(=O)N[C@@H](CCCCN)C(=O)N[C@@H](CC(N)=O)C(=O)N[C@@H](CCCCN)C(=O)N[C@@H](CCCNC(=N)N)C(=O)O [Peptide R3P105] |  |
| 0.7 | CSCC[C@H](NC(=O)[C@H](CCC(N)=O)NC(=O)[C@H](CCCCN)NC(=O)[C@H](CCCNC(=N)N)NC(=O)[C@H](Cc1ccc(O)cc1)NC(=O)[C@H](CCCNC(=N)N)NC(=O)[C@H](CO)NC(=O)[C@H](Cc1ccc(O)cc1)NC(=O)[C@H](CO)NC(=O)[C@H](CC(=O)O)NC(=O)[C@@H](NC(=O)[C@H](Cc1ccccc1)NC(=O)[C@H](CCCCN)NC(=O)CNC(=O)[C@H](CC(=O)O)NC(=O)[C@H](CO)NC(=O)[C@@H](N)Cc1c[nH]cn1)[C@@H](C)O)C(=O)N[C@@H](C)C(=O)N[C@H](C(=O)N[C@@H](CCCCN)C(=O)N[C@@H](CCCCN)C(=O)N[C@@H](Cc1ccc(O)cc1)C(=O)N[C@@H](CC(C)C)C(=O)N[C@@H](C)C(=O)N[C@@H](C)C(=O)N[C@H](C(=O)N[C@@H](CC(C)C)C(N)=O)C(C)C)C(C)C [PAC5] |  |
| 0.3 | CC[C@H](C)[C@H](NC(=O)[C@@H](NC(=O)[C@H](CC(N)=O)NC(=O)[C@H](CC(C)C)NC(=O)[C@H](Cc1ccc(O)cc1)NC(=O)[C@H](CCCCN)NC(=O)[C@H](CCCCN)NC(=O)[C@H](C)NC(=O)[C@H](C)NC(=O)[C@H](CC(C)C)NC(=O)[C@H](CCC(N)=O)NC(=O)[C@H](CCCCN)NC(=O)[C@H](CCCNC(=N)N)NC(=O)[C@H](CC(C)C)NC(=O)[C@H](CCCNC(=N)N)NC(=O)[C@@H](NC(=O)[C@H](Cc1ccc(O)cc1)NC(=O)[C@H](CC(N)=O)NC(=O)[C@H](CC(=O)O)NC(=O)[C@@H](NC(=O)[C@H](Cc1ccccc1)NC(=O)[C@@H](NC(=O)[C@H](C)NC(=O)[C@H](CC(=O)O)NC(=O)[C@H](CO)NC(=O)[C@@H](N)Cc1c[nH]cn1)C(C)C)[C@@H](C)O)[C@@H](C)O)[C@@H](C)O)C(=O)N[C@@H](CCCCN)C(=O)N[C@@H](CC(N)=O)C(=O)N[C@@H](CCCCN)C(=O)N[C@@H](CCCNC(=N)N)C(=O)N[C@@H](Cc1ccc(O)cc1)C(=O)O [Peptide R3P67] |  |
| 0.08 | CC[C@H](C)[C@H](NC(=O)[C@H](CO)NC(=O)[C@H](CCC(N)=O)NC(=O)[C@H](CC(C)C)NC(=O)[C@H](Cc1ccc(O)cc1)NC(=O)[C@H](CCCCN)NC(=O)[C@H](CCCCN)NC(=O)[C@H](C)NC(=O)[C@H](C)NC(=O)[C@@H](NC(=O)[C@H](CCC(N)=O)NC(=O)[C@H](CCCCN)NC(=O)[C@H](CCCNC(=N)N)NC(=O)[C@H](CC(C)C)NC(=O)[C@H](CCCNC(=N)N)NC(=O)[C@@H](NC(=O)[C@H](Cc1ccc(O)cc1)NC(=O)[C@H](CC(N)=O)NC(=O)[C@H](CC(=O)O)NC(=O)[C@@H](NC(=O)[C@H](Cc1ccccc1)NC(=O)[C@@H](NC(=O)[C@H](C)NC(=O)[C@H](CC(=O)O)NC(=O)[C@H](CO)NC(=O)[C@@H](N)Cc1c[nH]cn1)C(C)C)[C@@H](C)O)[C@@H](C)O)C(C)C)C(=O)N[C@@H](CC(C)C)C(=O)N[C@@H](CCCCN)C(=O)N[C@@H](CCCCN)C(=O)N[C@@H](CCCNC(=N)N)C(=O)N[C@@H](Cc1ccc(O)cc1)C(=O)O [Peptide R3P83] |  |
| 1.1 | CC[C@H](C)[C@H](NC(=O)CNC(=O)[C@H](CC(=O)O)NC(=O)[C@H](CO)NC(=O)[C@@H](N)Cc1c[nH]cn1)C(=O)N[C@@H](Cc1ccccc1)C(=O)N[C@H](C(=O)N[C@@H](CC(=O)O)C(=O)N[C@@H](CO)C(=O)N[C@@H](Cc1ccc(O)cc1)C(=O)N[C@@H](CO)C(=O)N[C@@H](CCCNC(=N)N)C(=O)N[C@@H](Cc1ccc(O)cc1)C(=O)N[C@@H](CCCNC(=N)N)C(=O)N[C@@H](CCCCN)C(=O)N[C@@H](CCC(N)=O)C(=O)N[C@@H](CCSC)C(=O)N[C@@H](CCCCN)C(=O)N[C@H](C(=O)N[C@@H](CCCCN)C(=O)N[C@@H](CCCCN)C(=O)N[C@@H](Cc1ccc(O)cc1)C(=O)N[C@@H](CC(C)C)C(=O)N[C@@H](C)C(=O)N[C@@H](C)C(=O)N[C@H](C(=O)N[C@@H](CC(C)C)C(N)=O)C(C)C)C(C)C)[C@@H](C)O [PAC18] |  |
| 0.4 | CC[C@H](C)[C@H](NC(=O)[C@H](CC(=O)O)NC(=O)[C@H](CC(N)=O)NC(=O)[C@H](CC(C)C)NC(=O)[C@H](Cc1ccc(O)cc1)NC(=O)[C@H](CCCCN)NC(=O)[C@H](CCCCN)NC(=O)[C@H](C)NC(=O)[C@H](C)NC(=O)[C@H](CC(C)C)NC(=O)[C@H](CCC(N)=O)NC(=O)[C@H](CCCCN)NC(=O)[C@H](CCCNC(=N)N)NC(=O)[C@H](CC(C)C)NC(=O)[C@H](CCCNC(=N)N)NC(=O)[C@@H](NC(=O)[C@H](Cc1ccc(O)cc1)NC(=O)[C@H](CC(N)=O)NC(=O)[C@H](CC(=O)O)NC(=O)[C@@H](NC(=O)[C@H](Cc1ccccc1)NC(=O)[C@@H](NC(=O)[C@H](C)NC(=O)[C@H](CC(=O)O)NC(=O)[C@H](CO)NC(=O)[C@@H](N)Cc1c[nH]cn1)C(C)C)[C@@H](C)O)[C@@H](C)O)C(=O)N[C@@H](CCCCN)C(=O)N[C@@H](CCCCN)C(=O)NCC(=O)O [Peptide R3P32] |  |
| 3 | Ac-HSDAVFTENYTKLRKQLAAKKYLNDLKKGGT [Peptide R3P2] |  |
|  | HSDGIFTDSYSRYRKQLAAKKYLADVKK [Peptide R3P38] | 7 |
| 0.4 | CC[C@H](C)[C@H](NC(=O)[C@@H](NC(=O)[C@H](CC(N)=O)NC(=O)[C@H](CC(C)C)NC(=O)[C@H](Cc1ccc(O)cc1)NC(=O)[C@H](CCCCN)NC(=O)[C@H](CCCCN)NC(=O)[C@H](C)NC(=O)[C@H](C)NC(=O)[C@H](CCSC)NC(=O)[C@H](CCC(N)=O)NC(=O)[C@H](CCCCN)NC(=O)[C@H](CCCNC(=N)N)NC(=O)[C@H](CC(C)C)NC(=O)[C@H](CCCNC(=N)N)NC(=O)[C@@H](NC(=O)[C@H](Cc1ccc(O)cc1)NC(=O)[C@H](CC(N)=O)NC(=O)[C@H](CC(=O)O)NC(=O)[C@@H](NC(=O)[C@H](Cc1ccccc1)NC(=O)[C@@H](NC(=O)[C@H](C)NC(=O)[C@H](CC(=O)O)NC(=O)[C@H](CO)NC(=O)[C@@H](N)Cc1c[nH]cn1)C(C)C)[C@@H](C)O)[C@@H](C)O)[C@@H](C)O)C(=O)N[C@@H](CCCCN)C(=O)N[C@@H](CC(N)=O)C(=O)N[C@@H](CCCCN)C(=O)N[C@@H](CCCNC(=N)N)C(=O)N[C@@H](Cc1ccc(O)cc1)C(=O)O [Peptide R3P70] |  |

| Compound | EC50 [nM] | R3 Selectivity |
| --- | --- | --- |
| HSDAVFTDNYTRLRKQMAQKKYLNSIKNKR [Peptide R3P109] | 10 | 100 |
| H-HSDAVFTDNYTRLRKQLAVKKYLNDIKKGGT-OH [Peptide R3P21] | 0.3 | 60 |
| H-HSDAVFTDNYTRLRKQMAPKKYLNSIKNKR [Peptide R3P108] | 300 | 3 |
